For one test, the system named is LNCaP. Description: Antiproliferative activity against human LNCAP cells after 96 hrs by SRB assay. It counts as functional, cell-based. A general note: The SRB assay estimates cell density from bound dye.
For test [1], the species on record is Bos taurus. Description: Inhibition of bovine brain tubulin polymerization after 20 mins by spectrophotometric analysis.
The test system of another test is A-375. Description: Antiproliferative activity against human A375 cells after 48 hrs by SRB assay. It counts as functional, cell-based. As to conditions: A-375, 48 h.
The species entered for test [2] is Bos taurus. The test is described as follows: Inhibition of bovine brain tubulin polymerization at 20 uM after 20 mins by spectrophotometric analysis.
A short description of test [3]: Antiproliferative activity against human paclitaxel-resistant PC3-TxR cells after 96 hrs by SRB assay. It counts as functional, cell-based.
A further test relates to PC-3. Description: Antiproliferative activity against human PC3 cells after 96 hrs by SRB assay. It counts as functional, cell-based. To be noted: PC-3, 96 h.
The nature of test [4]: Antiproliferative activity against human A172 cells after 5 days by MTT assay. To be noted: A 172, 120 h. It counts as functional, cell-based.
The nature of test [5]: Antiproliferative activity against human U87 cells after 5 days by MTT assay. Type of test: functional, cell-based, U-87MG ATCC. To be noted: U-87 MG, 120 h.
The next test deals with T98G. The test is described as follows: Antiproliferative activity against human T98G cells after 5 days by MTT assay. It counts as functional, cell-based. To be noted: 120 h.
A short description of test [6]: Antiproliferative activity against human WM164 cells after 48 hrs by SRB assay. It counts as functional, cell-based. To be noted: WM164, 48 h.
The nature of test [7]: Antiproliferative activity against human LN18 cells after 5 days by MTT assay. It counts as functional, cell-based. As to conditions: LN-18, 120 h.
For test [8], the species on record is Bos taurus. The test is described as follows: Inhibition of bovine brain tubulin polymerization at 10 uM after 20 mins by spectrophotometric analysis.
Test [9] in a line: Cytotoxicity against mouse primary astrocytes after 5 days by MTT assay. As to conditions: Astrocyte, 120 h. Type of test: cell-based. (In general: Formazan colour is commonly taken as a measure of viable cells.)

This is an account of results in ChEMBL document CHEMBL2040728, “New substituted 4H-chromenes as anticancer agents” (Bioorg Med Chem Lett, 2012).

SMILES strings stand for the structures.

By IC50 is commonly meant the midpoint of a concentration-inhibition curve. A low value points to greater potency in that assay. Broadly, the inhibition is the relative decrease from the control value, in per cent.

Take `CN(C)c1ccc2c(c1)OC(N)=C(C#N)C2c1ccc(N(C)C)c2ccccc12` (stereo not given): the IC50 in the test on LNCaP is 140 nM; in the test on A-375, 80 nM; in test [3], 230 nM; with PC-3, 220 nM; in test [4], 7.4 nM; in [5], 20.6 nM. Further, the IC50 in the test with T98G was 12.5 nM; in [6] it was 160 nM; in test [7] it was 13.3 nM; in [9], 2030 nM. The inhibition entry was “Dose-dependent effect” in the test listed under Bos taurus [1], 68% in the test listed under Bos taurus [2] and 29% in the test listed under Bos taurus [8].

In the case of `COc1cc2c(c(OC)c1OC)-c1ccc(OC)c(=O)cc1[C@@H](NC(C)=O)CC2` [COLCHICINE], the IC50 in test [3] stood at 20 nM; in test [6] it was 30 nM.
